Here are results for 6 compounds from patent US20110100371A1, “ANTI-VIRAL PROPERTIES OF ZOSTERIC ACID AND RELATED MOLECULES” (FLORIDA GULF COAST UNIVERSITY, priority 2007, published 2011).

As usually defined, the inhibition is the percentage by which the read-out fell short of the control. The IC50 is the midpoint of a concentration-inhibition curve.

Test [1] relates to DENV-2. The test can be described thus: Pre-binding focus-forming assay. It is filed as cell-based, dengue virus. The following applies: DENV-2, chemistry incubated with target cells 1 h at 4° C., rinsed before infection. The protocol: To determine if the observed inhibitory effect was due to interference caused by modifications to the target cell surface, CF 238 was incubated with the target cells for 1 h at 4° C., the cells were rinsed with PBS, and approximately 200 FFU of DENV-2 was allowed to infect the cells at 4° C. Agarose overlays, incubation, and immunological detection were conducted as described for the focus forming assay.

Test [2] relates to DENV-2. The experiment in a line: qRT-PCR virus binding assay. It is filed as cell-based, dengue virus. The following applies: DENV-2 pre-incubated 45 m at 4° C., infection of LLCMK-2 45 m at 4° C. Here is the method: Infection of LLCMK-2 target cells in six well plates was performed in duplicate using 10^5 FFU of DENV-2 that had been pre-incubated for 45 m at 4° C. with CF 238 or pooled heterotypic anti-DENY human serum. After a 45 m infection at 4° C., infected monolayers were washed with PBS and harvested with a cell scraper, added to a 1.5 ml microfuge tube containing 350 μl of AR-200 silicone oil (Sigma-Aldrich, St. Louis, Mo.) mixed with 150 μl of silicone fluid (Thomas, Swedesboro, N.J.), and spun at 14,000 rpm in a microfuge for 1 m to separate the unbound virus from the cell-bound virus in the pellets. The tubes were then submerged in liquid nitrogen for 30 s to freeze the contents. The cell pellets with bound virus were recovered by clipping off the bottoms of the tubes with small wire clippers into 15 ml conical tubes. Viral RNA was extracted from the cell pellets using the Qiagen Viral RNA Extraction kit (Qiagen, Chatsworth, Calif.).
Quantitative real time reverse transcription PCR (qRT-PCR) was performed on the extracted RNA using the Quantitect Sybr Green RT-PCR kit (Qiagen inc., Chatsworth, Calif.), following the manufacturer's specifications and amplification protocols, using dengue-specific primers: (Den2F: […], Den2R: […]). […]
In general terms: Quantitative PCR measures a nucleic acid by following its amplification.

In another test the test system is DENV-2 strain NG-2. The experiment in a line: Focus forming unit (FFU) reduction assay, DENV-2. It is filed as cell-based, dengue virus. Here is the method:
(§1) DENV-1 strain HI-1, DENV-2 strain NG-2, DENV-3 strain H-78, and DENV-4 strain H-42 were obtained from R. Tesh at the World Health Organization Arbovirus Reference Laboratory at the University of Texas at Galveston. Viruses were propagated in the […] kidney epithelial cell line, LLCMK-2, a gift of K. Olsen at Colorado State University. LLCMK-2 cells were grown in Dulbecco's modified eagle medium (DMEM) with 10% (v/v) fetal bovine serum (FBS), 2 mM Glutamax, 100 U/ml penicillin G, 100 μg/ml streptomycin and 0.25 μg/ml amphotericin B, at 37° C. with 5% (v/v) CO2.
LLCMK-2 target cells were seeded at a density of 1×10^5 cells in each well of a 6-well plate 24 h prior to infection. Approximately 200 FFU of virus were incubated with or without chemistries in serum-free DMEM for 1 h at rt. Virus/chemistry or virus/control mixtures were allowed to infect confluent target cell monolayers for 1 h at 37° C., with rocking every 15 m, after which time the medium was aspirated and overlaid with fresh DMEM/10% (v/v) FBS containing 0.85% (w/v) Sea-Plaque Agarose (Cambrex Bio Science, Rockland, Me.). Cells with agar overlays were incubated at 4° C. for 20 m to set the agar. Infected cells were then incubated at 37° C. with 5% CO2 for 3 days (DENV-1, 3 and 4) or 5 days (DENV-2). Infected cultures were fixed with 10% formalin overnight at 4° C., permeabilized with 70% (v/v) ethanol for 20 m, and rinsed with PBS prior to immunostaining. Virus foci were detected using supernatant from mouse anti-DENV hybridoma E60 (obtained from M. Diamond at Washington University) followed by horseradish peroxidase-conjugated goat anti-mouse immunoglobulin (Pierce, Rockford, Ill.) and developed using AEC chromogen substrate (Dako, Carpinteria, Calif.). Results were expressed as the average of at least two independent trials with three replicates in each trial.

The next test relates to DENV-1 strain HI-1. The test can be described thus: Focus forming unit (FFU) reduction assay, DENV-1. The following applies: Dengue virus, DENV1, LLC-MK2; DENV-1 (D-1), LLCMK-2 target cells; read-out: IC50 μM ± sem. It is filed as cell-based. Here is the method:
as §1
(§2) LLCMK-2 target cells were seeded at a density of 1×10^5 cells in each well of a 6-well plate 24 h prior to infection. Approximately 200 FFU of virus were incubated with or without chemistries in serum-free DMEM for 1 h at rt. […] Virus foci were detected using supernatant from mouse anti-DENV hybridoma E60 (obtained from M. Diamond at Washington University) followed by horseradish peroxidase-conjugated goat anti-mouse immunoglobulin (Pierce, Rockford, Ill.) and developed using AEC chromogen substrate (Dako, Carpinteria, Calif.). Results were expressed as the average of at least two independent trials with three replicates in each trial.

For the next test, the system named is DENV-3 strain H-78. The experiment in a line: Focus forming unit (FFU) reduction assay, DENV-3. It counts as cell-based. The following applies: Dengue virus, DENV3, LLC-MK2; DENV-3 (D-3), LLCMK-2 target cells; read-out: IC50 μM ± sem. The protocol:
as §1, §2

A further test deals with DENV-4 strain H-42. The test can be described thus: Focus forming unit (FFU) reduction assay, DENV-4. It is filed as cell-based. The following applies: Dengue virus, DENV4, LLC-MK2; DENV-4 (D-4), LLCMK-2 target cells; read-out: IC50 μM ± sem. Here is the method:
as §1, §2

Another test has as its system DENV-1,2,3 and 4. The test can be described thus: Focus forming unit (FFU) reduction assay, several dengue strains stated together. It counts as cell-based. The conditions noted are these: Dengue virus. Here is the method:
as §1, §2

Test [3] deals with DENV-2. The test can be described thus: Post-binding focus-forming assay. It is filed as cell-based, dengue virus. The conditions noted are these: DENV-2 bound at 4° C., then chemistry added 1 h at 4° C. The protocol:
To determine if the observed inhibitory effect was due to interference with interactions that occur pre-binding versus post-binding of virions to the target cells, approximately 200 FFU of DENV-2 was allowed to bind to target LLCMK-2 cells for 1 h at 4° C. to allow binding, but prevent internalization. Unbound virus was washed off with PBS at 4° C., then CF 238 was added and incubated at 4° C. for 1 h. Cultures were washed again in 4° C. PBS and warmed to 37° C. Agarose overlays, incubation, and immunological detection were conducted as described for the focus forming assay.

The test system of test [4] is DENV-2. The test can be described thus: Post-entry focus-forming assay. It is filed as cell-based, dengue virus. The following applies: DENV-2, chemistry added post-entry 1 hr at 37° C. Here is the method: To determine if the observed inhibitory effect was due to interference with post-entry steps in the viral life cycle, approximately 200 FFU of DENV-2 without CF 238 was allowed to bind and enter target cells for 1 h at 37° C. as described for the focus forming assay. Unbound virus was then removed by rinsing with PBS and CF 238 was added to the cells post-entry for 1 hr at 37° C. Cultures were washed again in PBS and agarose overlays, incubation, and immunological detection was conducted as described for the focus forming assay.

[5] abbreviates: Dengue virus, DENV2, LLC-MK2, read-out: IC50 μM ± sem.
[6] abbreviates: Dengue virus, DENV2, read-out: maximum inhibition.
[7] abbreviates: Dengue virus, DENV2, DENV-2, rounded statement in text, read-out: IC50 (approximate).

Entries after “also recorded” stand apart in the source; their conditions may differ. Like-named read-outs stand apart in the source and are kept apart here.

As to `CCN(CCOC(=O)/C=C/c1ccc(O)cc1)Cc1cc(Cl)ccc1O` [CF 238], in the test on DENV-2 [1], the “inhibition when target cells treated prior to infection” value was “no evidence of inhibition; also recorded: does not inhibit virus infection when pre-incubated with target cells”. Also, the “virus binding/attachment to target cells (qRT-PCR signal)” value in the test on DENV-2 [2] is “did not inhibit virus binding; also recorded: enhances virus:cell binding”. Also, the inhibition at 84 µM is 86% with DENV-2 strain NG-2 (Dengue virus, DENV2, AT84); 86 to 100% in the test with DENV-1,2,3 and 4 (DENV1, AT84, all dengue strains, at 84 μM). For the same compound, the IC50 is 46 ± 4 µM with DENV-2 strain NG-2 (setting [5]); 24 ± 6 µM in the test on DENV-1 strain HI-1; 14 ± 2 µM in the test with DENV-3 strain H-78; 47 ± 5 µM in the test with DENV-4 strain H-42; 14 to 47 µM in the test on DENV-1,2,3 and 4 (DENV1, range over DENV-1, 3 and 4, read-out: IC50 against the other three DENV types). Also, the “activity relative to zosteric acid” value in the test with DENV-2 strain NG-2 (anti-DENV inhibitory activity compared with the natural product) is given as ~100 times. For the same compound, the “inhibition of virus already bound to target cells” value in the test with DENV-2 [3] is “No inhibition of infection was observed”. Also, the “inhibition when added after viral entry” value with DENV-2 [4] is “no evidence of inhibition”.

For the compound `CN(CCCNC(=O)c1ccc(O)cc1)CCCNC(=O)c1ccc(O)cc1` [CF 285], the IC50 in the test on DENV-2 strain NG-2 (setting [5]) was 2520 µM; in the test on DENV-2 strain NG-2 (setting [7]), ~2000 µM. Besides, the inhibition at 3000 µM in the test with DENV-2 strain NG-2 (setting [6]) was 63%.

Take `CN(CCCNC(=O)c1ccc(O)cc1)CCCNC(=O)c1ccc2cc(O)ccc2c1` [CF 290]: the IC50 with DENV-2 strain NG-2 (setting [5]) came to 294 ± 42 µM. Besides, in the test on DENV-2 strain NG-2 (setting [6]), the inhibition at 367 µM is 60%.

Consider `O=C(c1ccc(O)cc1)N1CCCN(C(=O)c2ccc3cc(O)ccc3c2)CC1` [CF 296], for which, in the test with DENV-2 strain NG-2 (DENV-2, result in words), the “dose-dependent inhibition against DENV-2” value is “did not show evidence of clear dose-dependent inhibition”.

Regarding `CCN(CCCN(CC)C(=O)c1cccc(O)c1)C(=O)c1cccc(O)c1` [CF 490], the IC50 in the test on DENV-2 strain NG-2 (setting [5]) is 2380 µM; in the test with DENV-2 strain NG-2 (setting [7]), ~2000 µM. Further, in the test with DENV-2 strain NG-2 (setting [6]), the inhibition at 3000 µM worked out at 84%.

As for `O=C(O)/C=C/c1ccc(OS(=O)(=O)O)cc1` [ZA, p-sulfoxy-cinnamic acid], in the test on DENV-2 strain NG-2 (Dengue virus, DENV2), the inhibition at 5000 µM was found to be 99%. Besides, the IC50 in the test on DENV-2 strain NG-2 (setting [5]) was 2380 µM; in the test on DENV-2 strain NG-2 (setting [7]), ~2000 µM.
